# Experiments:
# [1] = Tmax in healthy volunteer (6 volunteers) at 800 mg, po administered as single dose by gas liquid chromatographic method; format: ADME, organism-based; conditions: human, in vivo
# [2] = Apparent volume of distribution in epileptic patient (6 patients) at 800 mg, iv administered as single dose by gas liquid chromatographic method; format: ADME, organism-based; conditions: human, in vivo, read-out: Vd(app)
# [3] = Elimination rate constant in epileptic patient (6 patients) at 800 mg, po administered as single dose by gas liquid chromatographic method; format: ADME, organism-based; conditions: human, in vivo
# [4] = Total clearance in epileptic patient (6 patients) at 800 mg, iv administered as single dose by gas liquid chromatographic method; format: ADME, organism-based; conditions: human, in vivo
# [5] = Apparent volume of distribution in healthy volunteer (6 volunteers) at 800 mg, iv administered as single dose by gas liquid chromatographic method; format: ADME, organism-based; conditions: human, in vivo, read-out: Vd(app)
# Homo sapiens [6] = test: Toxicity in epileptic patient (6 patients) at 800 mg, po and iv administered as single dose by gas liquid chromatographic method; format: organism-based; conditions: in vivo
# [7] = AUC (0 to infinity) in epileptic patient (6 patients) at 800 mg, iv administered as single dose by gas liquid chromatographic method; format: ADME, organism-based; set-up: dose 800 mg, route intravenous, time infinity; conditions: human, in vivo
# [8] = AUC (0 to 48 hrs) in epileptic patient (6 patients) at 800 mg, iv administered as single dose by gas liquid chromatographic method; format: ADME, organism-based; set-up: dose 800 mg, time < 48 hr, route intravenous; conditions: human, in vivo
# Homo sapiens [9] = test: Extrapolated volume of distribution in epileptic patient (6 patients) at 800 mg, po administered as single dose by gas liquid chromatographic method; format: ADME, organism-based; conditions: in vivo
# Homo sapiens [10] = test: Volume of distribution (area) in epileptic patient (6 patients) at 800 mg, po administered as single dose by gas liquid chromatographic method; format: ADME, organism-based; conditions: in vivo
# [11] = Volume of distribution (area) in healthy volunteer (6 volunteers) at 800 mg, iv administered as single dose by gas liquid chromatographic method; format: ADME, organism-based; conditions: human, in vivo
# [12] = Elimination rate constant in epileptic patient (6 patients) at 800 mg, iv administered as single dose by gas liquid chromatographic method; format: ADME, organism-based; conditions: human, in vivo
# [13] = AUC (0 to 48 hrs) in epileptic patient (6 patients) at 800 mg, po administered as single dose by gas liquid chromatographic method; format: ADME, organism-based; set-up: dose 800 mg, time < 48 hr, route oral; conditions: human, in vivo
# [14] = AUC (0 to infinity) in epileptic patient (6 patients) at 800 mg, po administered as single dose by gas liquid chromatographic method; format: ADME, organism-based; set-up: dose 800 mg, route oral, time infinity; conditions: human, in vivo
# [15] = Half life in epileptic patient (6 patients) at 800 mg, iv administered as single dose by gas liquid chromatographic method; format: ADME, organism-based; conditions: human, in vivo
# [16] = Volume of distribution (area) in epileptic patient (6 patients) at 800 mg, iv administered as single dose by gas liquid chromatographic method; format: ADME, organism-based; conditions: human, in vivo
# [17] = Half life in healthy volunteer (6 volunteers) at 800 mg, iv administered as single dose by gas liquid chromatographic method; format: ADME, organism-based; conditions: human, in vivo
# [18] = Oral bioavailability in epileptic patient (6 patients) at 800 mg administered as single dose by gas liquid chromatographic method; format: ADME, organism-based; conditions: human, in vivo
# [19] = Tmax in epileptic patient (6 patients) at 800 mg, po administered as single dose by gas liquid chromatographic method; format: ADME, organism-based; conditions: human, in vivo
# [20] = Initial plasma concentration in epileptic patient (6 patients) at 800 mg, iv administered as single dose by gas liquid chromatographic method; format: ADME, organism-based; conditions: human
# [21] = Extrapolated volume of distribution in epileptic patient (6 patients) at 800 mg, iv administered as single dose by gas liquid chromatographic method; format: ADME, organism-based; conditions: human, in vivo
# [22] = Elimination rate constant in healthy volunteer (6 volunteers) at 800 mg, iv administered as single dose by gas liquid chromatographic method; format: ADME, organism-based; conditions: human, in vivo
# [23] = Total clearance in healthy volunteer (6 volunteers) at 800 mg, iv administered as single dose by gas liquid chromatographic method; format: ADME, organism-based; conditions: human, in vivo
# [24] = Cmax in epileptic patient (6 patients) at 800 mg, po administered as single dose by gas liquid chromatographic method; format: ADME, organism-based; set-up: dose 800 mg, route oral; conditions: human, in vivo
# [25] = Half life in epileptic patient (6 patients) at 800 mg, po administered as single dose by gas liquid chromatographic method; format: ADME, organism-based; conditions: human, in vivo
smiles,measurement,setting,value
CCCC(CCC)C(=O)[O-].[Na+] [VALPROATE SODIUM],Tmax,[1],1.8 h
same,Vd,[2],0.175 L/kg
same,k el,[3],2.17e-05 s⁻¹
same,clearance,[4],16.7 mL/min
same,Vd,[5],0.147 L/kg
same,Activity,Homo sapiens [6],Non-toxic
same,AUC(0-inf),[7],807 µg·h/mL
same,AUC(0-t) at 48 h,[8],785 µg·h/mL
same,Vd,Homo sapiens [9],13.1 L
same,Vd,Homo sapiens [10],12.9 L
same,Vd,[11],10 L
same,k el,[12],2.21e-05 s⁻¹
same,AUC(0-t) at 48 h,[13],749 µg·h/mL
same,AUC(0-inf),[14],771 µg·h/mL
same,half-life,[15],9 h
same,Vd,[16],12.8 L
same,half-life,[17],12.8 h
same,bioavailability,[18],96%
same,Tmax,[19],1.2 h
same,C0,[20],58.5 µg/mL
same,Vd,[21],13.8 L
same,k el,[22],1.52e-05 s⁻¹
same,clearance,[23],9 mL/min
same,Cmax,[24],71.8 µg/mL
same,half-life,[25],9 h
